According to the kinase profiling compilation of Christmann-Franck et al. (2016):

How the values were obtained:
Assay in all cases: radiometric filter-binding kinase assay
EPHB2 (human) = EPHB2 (human) (UniProt P29323)
CDK2 CCNA2 (human) = CDK2 CCNA2 (human) (UniProt P20248+P24941)
IKBKB (human) = IKBKB (human) (UniProt O14920)
EPHB1 (human) = EPHB1 (human) (UniProt P54762)
MINK1 (human) = MINK1 (human) (UniProt Q8N4C8)
RPS6KA3 KD1 KD2 (human) = RPS6KA3 KD1 KD2 (human) (UniProt P51812)
CaMK1 (human) = CaMK1 (human) (UniProt Q14012)
Sequence of CaMK1 (human) (Q14012 whole entry, looked up): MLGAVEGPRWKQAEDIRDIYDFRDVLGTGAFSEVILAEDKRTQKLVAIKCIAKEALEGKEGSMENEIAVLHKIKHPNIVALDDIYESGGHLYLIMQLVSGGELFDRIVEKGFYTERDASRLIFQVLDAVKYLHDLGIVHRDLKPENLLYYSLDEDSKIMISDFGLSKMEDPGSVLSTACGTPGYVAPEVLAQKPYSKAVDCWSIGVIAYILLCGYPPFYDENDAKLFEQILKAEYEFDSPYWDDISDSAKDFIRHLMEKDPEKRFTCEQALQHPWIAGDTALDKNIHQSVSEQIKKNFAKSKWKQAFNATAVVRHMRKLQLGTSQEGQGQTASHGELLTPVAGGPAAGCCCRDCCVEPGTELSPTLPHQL

TBK1 (human) = TBK1 (human) (UniProt Q9UHD2)
EPHA2 (human) = EPHA2 (human) (UniProt P29317)
PAK4 (human) = PAK4 (human) (UniProt O96013)
TTK (human) = TTK (human) (UniProt P33981)
Sequence of TTK (human) (P33981 whole entry, looked up): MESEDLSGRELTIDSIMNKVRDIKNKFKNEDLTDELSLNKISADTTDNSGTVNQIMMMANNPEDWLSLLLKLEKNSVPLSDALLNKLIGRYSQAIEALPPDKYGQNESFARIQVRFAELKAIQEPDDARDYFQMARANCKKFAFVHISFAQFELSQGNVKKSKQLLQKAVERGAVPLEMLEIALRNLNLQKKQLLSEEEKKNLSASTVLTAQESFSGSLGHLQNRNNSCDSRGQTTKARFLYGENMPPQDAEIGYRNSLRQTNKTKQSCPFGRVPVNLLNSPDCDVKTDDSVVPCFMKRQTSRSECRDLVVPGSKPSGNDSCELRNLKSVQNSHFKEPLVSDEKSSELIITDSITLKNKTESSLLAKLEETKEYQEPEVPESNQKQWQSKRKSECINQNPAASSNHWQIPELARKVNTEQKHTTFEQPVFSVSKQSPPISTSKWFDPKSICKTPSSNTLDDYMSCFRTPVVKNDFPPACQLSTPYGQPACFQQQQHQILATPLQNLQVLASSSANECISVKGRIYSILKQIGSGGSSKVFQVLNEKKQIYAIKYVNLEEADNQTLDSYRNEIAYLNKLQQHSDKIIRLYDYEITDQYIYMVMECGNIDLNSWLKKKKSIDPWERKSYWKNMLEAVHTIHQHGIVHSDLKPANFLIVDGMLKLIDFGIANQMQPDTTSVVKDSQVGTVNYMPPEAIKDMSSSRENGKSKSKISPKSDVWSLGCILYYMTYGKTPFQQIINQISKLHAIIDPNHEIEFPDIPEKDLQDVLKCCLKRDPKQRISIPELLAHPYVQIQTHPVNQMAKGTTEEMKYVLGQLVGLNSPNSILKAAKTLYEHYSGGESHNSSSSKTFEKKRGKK

PAK6 (human) = PAK6 (human) (UniProt Q9NQU5)
Sequence of PAK6 (human) (Q9NQU5 whole entry, looked up): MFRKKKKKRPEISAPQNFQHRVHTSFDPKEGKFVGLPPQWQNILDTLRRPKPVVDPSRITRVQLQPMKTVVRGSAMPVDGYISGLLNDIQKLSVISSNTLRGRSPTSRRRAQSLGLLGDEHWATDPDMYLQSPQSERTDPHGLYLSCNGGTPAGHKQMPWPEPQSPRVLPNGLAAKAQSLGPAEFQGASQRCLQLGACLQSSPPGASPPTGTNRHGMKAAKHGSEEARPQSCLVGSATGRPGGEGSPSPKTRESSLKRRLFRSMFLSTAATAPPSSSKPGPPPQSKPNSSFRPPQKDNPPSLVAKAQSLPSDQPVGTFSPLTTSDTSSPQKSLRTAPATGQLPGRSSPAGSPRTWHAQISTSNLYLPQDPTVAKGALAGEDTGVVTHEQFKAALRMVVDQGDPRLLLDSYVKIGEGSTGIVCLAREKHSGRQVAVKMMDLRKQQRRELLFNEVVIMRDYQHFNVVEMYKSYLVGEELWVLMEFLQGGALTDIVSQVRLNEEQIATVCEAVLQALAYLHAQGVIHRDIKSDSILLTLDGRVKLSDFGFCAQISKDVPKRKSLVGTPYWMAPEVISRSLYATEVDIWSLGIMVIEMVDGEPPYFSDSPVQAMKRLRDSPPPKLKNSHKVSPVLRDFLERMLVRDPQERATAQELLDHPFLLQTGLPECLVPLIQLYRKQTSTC

MARK2 (human) = MARK2 (human) (UniProt Q7KZI7)
CHEK2 (human) = CHEK2 (human) (UniProt O96017)
DYRK3 (human) = DYRK3 (human) (UniProt O43781)
AURKB (human) = AURKB (human) (UniProt Q96GD4)
MAP2K1 (human) = MAP2K1 (human) (UniProt Q02750)
CSK (human) = CSK (human) (UniProt P41240)
GCK (human) = GCK (human) (UniProt Q12851)
LCK (mouse) = settings: accession and sequence are those of the human protein
SRC (human) = SRC (human) (UniProt P12931)
TAOK1 (human) = TAOK1 (human) (UniProt Q7L7X3)
PKN2 (human) = PKN2 (human) (UniProt Q16513)
MAPK10 (human) = MAPK10 (human) (UniProt P53779)
[1] = tested on: PAK2 (human), Q13177 [T402E]
EPHA4 (human) = EPHA4 (human) (UniProt P54764)
NUAK1 (human) = NUAK1 (human) (UniProt O60285)
ROCK2 (rat) = settings: accession and sequence are those of the human protein
MAP3K11 (human) = MAP3K11 (human) (UniProt Q16584)
CHEK1 (human) = CHEK1 (human) (UniProt O14757)
MAPK8 (human) = MAPK8 (human) (UniProt P45983)
MST4 (human) = MST4 (human) (UniProt Q9P289)
MYLK (human) = MYLK (human) (UniProt Q15746)
[2] = tested on: AKT1 (human), P31749 [S473D]
MAP3K7 TAB1 (human) = MAP3K7 TAB1 (human) (UniProt Q15750+O43318)
EPHB3 (human) = EPHB3 (human) (UniProt P54753)
Sequence of EPHB3 (human) (P54753 whole entry, looked up): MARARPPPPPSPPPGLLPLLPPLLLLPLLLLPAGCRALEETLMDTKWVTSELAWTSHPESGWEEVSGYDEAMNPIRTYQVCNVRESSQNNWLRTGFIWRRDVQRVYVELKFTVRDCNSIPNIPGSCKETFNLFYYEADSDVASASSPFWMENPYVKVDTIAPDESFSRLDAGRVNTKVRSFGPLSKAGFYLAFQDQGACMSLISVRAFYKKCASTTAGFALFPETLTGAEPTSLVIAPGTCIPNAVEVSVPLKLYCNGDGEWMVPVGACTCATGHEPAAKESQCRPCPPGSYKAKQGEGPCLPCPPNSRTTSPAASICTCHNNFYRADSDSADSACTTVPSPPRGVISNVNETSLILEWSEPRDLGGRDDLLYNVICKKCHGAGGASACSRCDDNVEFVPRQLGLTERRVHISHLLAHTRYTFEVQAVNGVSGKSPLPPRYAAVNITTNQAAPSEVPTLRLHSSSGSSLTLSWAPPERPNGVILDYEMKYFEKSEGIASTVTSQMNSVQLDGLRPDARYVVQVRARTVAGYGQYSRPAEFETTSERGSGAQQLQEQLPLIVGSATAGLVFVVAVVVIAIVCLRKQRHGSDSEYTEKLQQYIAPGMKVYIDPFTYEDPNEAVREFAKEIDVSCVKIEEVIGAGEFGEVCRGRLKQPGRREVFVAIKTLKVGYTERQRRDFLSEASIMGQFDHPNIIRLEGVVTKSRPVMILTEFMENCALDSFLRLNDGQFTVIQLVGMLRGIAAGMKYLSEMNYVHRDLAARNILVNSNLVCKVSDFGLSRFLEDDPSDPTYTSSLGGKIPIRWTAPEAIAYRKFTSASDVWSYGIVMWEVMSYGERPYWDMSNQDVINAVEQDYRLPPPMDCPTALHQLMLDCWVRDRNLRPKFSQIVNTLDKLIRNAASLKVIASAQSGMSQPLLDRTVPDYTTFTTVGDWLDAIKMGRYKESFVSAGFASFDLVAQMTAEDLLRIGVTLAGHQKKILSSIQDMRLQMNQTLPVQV

Sequence of EPHB1 (human) (P54762 whole entry, looked up): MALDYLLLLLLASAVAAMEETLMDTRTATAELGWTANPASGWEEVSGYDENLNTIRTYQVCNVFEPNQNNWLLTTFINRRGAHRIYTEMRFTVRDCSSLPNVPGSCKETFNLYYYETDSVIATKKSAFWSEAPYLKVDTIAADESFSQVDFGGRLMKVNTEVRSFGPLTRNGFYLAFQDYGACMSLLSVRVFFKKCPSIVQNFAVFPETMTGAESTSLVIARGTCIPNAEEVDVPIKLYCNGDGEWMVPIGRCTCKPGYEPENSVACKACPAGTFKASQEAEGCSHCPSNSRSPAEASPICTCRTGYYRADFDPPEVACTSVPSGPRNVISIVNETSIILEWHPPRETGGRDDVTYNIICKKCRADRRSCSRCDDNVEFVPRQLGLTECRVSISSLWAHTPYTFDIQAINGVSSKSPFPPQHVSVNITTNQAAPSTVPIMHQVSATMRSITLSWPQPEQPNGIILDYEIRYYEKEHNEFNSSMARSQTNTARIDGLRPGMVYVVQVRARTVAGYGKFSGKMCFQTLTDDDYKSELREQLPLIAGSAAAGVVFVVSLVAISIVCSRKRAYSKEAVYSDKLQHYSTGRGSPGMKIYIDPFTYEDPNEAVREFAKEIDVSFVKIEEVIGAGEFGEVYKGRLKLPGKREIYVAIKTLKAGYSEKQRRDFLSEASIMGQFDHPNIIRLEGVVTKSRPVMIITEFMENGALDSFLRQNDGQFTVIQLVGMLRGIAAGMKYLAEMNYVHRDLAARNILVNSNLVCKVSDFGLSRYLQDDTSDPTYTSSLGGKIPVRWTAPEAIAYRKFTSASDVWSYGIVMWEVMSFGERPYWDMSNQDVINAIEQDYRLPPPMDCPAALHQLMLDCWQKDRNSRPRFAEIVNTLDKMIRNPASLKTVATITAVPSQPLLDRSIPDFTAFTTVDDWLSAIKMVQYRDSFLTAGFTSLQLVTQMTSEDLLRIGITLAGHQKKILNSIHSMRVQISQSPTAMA
Sequence of EPHB2 (human) (P29323 whole entry, looked up): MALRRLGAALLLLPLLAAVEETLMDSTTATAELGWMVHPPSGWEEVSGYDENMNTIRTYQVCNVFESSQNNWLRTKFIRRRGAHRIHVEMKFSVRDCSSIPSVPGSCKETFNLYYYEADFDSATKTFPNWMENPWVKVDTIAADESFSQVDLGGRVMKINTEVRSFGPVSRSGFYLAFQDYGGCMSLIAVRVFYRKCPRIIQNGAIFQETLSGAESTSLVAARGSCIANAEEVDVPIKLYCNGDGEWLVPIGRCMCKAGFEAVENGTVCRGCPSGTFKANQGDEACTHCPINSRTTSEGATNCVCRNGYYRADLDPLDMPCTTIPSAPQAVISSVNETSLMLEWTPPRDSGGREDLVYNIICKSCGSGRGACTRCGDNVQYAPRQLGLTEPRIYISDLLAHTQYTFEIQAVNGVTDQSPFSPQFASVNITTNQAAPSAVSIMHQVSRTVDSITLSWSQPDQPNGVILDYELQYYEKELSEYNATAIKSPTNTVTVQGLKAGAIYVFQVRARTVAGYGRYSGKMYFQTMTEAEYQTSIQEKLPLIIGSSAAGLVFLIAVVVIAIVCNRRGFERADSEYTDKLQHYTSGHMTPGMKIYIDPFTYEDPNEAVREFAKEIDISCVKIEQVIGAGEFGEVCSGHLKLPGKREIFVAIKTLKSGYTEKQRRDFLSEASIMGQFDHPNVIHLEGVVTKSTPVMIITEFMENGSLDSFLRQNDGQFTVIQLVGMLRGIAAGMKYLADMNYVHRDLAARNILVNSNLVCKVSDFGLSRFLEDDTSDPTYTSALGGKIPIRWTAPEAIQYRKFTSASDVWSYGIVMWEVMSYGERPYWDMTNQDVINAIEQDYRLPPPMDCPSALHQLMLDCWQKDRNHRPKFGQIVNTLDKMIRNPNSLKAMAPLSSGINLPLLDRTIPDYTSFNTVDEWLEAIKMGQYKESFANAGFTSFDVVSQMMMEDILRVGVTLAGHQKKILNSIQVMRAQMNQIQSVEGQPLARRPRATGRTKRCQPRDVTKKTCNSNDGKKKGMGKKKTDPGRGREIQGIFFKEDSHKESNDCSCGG

- residual activity (EPHB2 (human); compound 1.0 µM): 111%
- residual activity (EPHB2 (human); compound 10.0 µM): 120%
- residual activity (CDK2 CCNA2 (human); compound 1.0 µM): 79%
- residual activity (CDK2 CCNA2 (human); compound 10.0 µM): 47%
- residual activity (IKBKB (human); compound 1.0 µM): 89%
- residual activity (IKBKB (human); compound 10.0 µM): 56%
- residual activity (EPHB1 (human); compound 1.0 µM): 108%
- residual activity (EPHB1 (human); compound 10.0 µM): 100%
- residual activity (MINK1 (human); compound 1.0 µM): 96%
- residual activity (MINK1 (human); compound 10.0 µM): 87%
- residual activity (RPS6KA3 KD1 KD2 (human); compound 1.0 µM): 132%
- residual activity (RPS6KA3 KD1 KD2 (human); compound 10.0 µM): 88%
- residual activity (CaMK1 (human); compound 1.0 µM): 93%
- residual activity (CaMK1 (human); compound 10.0 µM): 73%
- residual activity (TBK1 (human); compound 1.0 µM): 109%
- residual activity (TBK1 (human); compound 10.0 µM): 63%
- residual activity (EPHA2 (human); compound 1.0 µM): 126%
- residual activity (EPHA2 (human); compound 10.0 µM): 94%
- residual activity (PAK4 (human); compound 1.0 µM): 121%
- residual activity (PAK4 (human); compound 10.0 µM): 97%
- residual activity (TTK (human); compound 1.0 µM): 83%
- residual activity (TTK (human); compound 10.0 µM): 63%
- residual activity (PAK6 (human); compound 1.0 µM): 121%
- residual activity (PAK6 (human); compound 10.0 µM): 110%
- residual activity (MARK2 (human); compound 1.0 µM): 83%
- residual activity (MARK2 (human); compound 10.0 µM): 84%
- residual activity (CHEK2 (human); compound 1.0 µM): 102%
- residual activity (CHEK2 (human); compound 10.0 µM): 37%
- residual activity (DYRK3 (human); compound 1.0 µM): 18%
- residual activity (DYRK3 (human); compound 10.0 µM): 3%
- residual activity (AURKB (human); compound 1.0 µM): 81%
- residual activity (AURKB (human); compound 10.0 µM): 40%
- residual activity (MAP2K1 (human); compound 1.0 µM): 87%
- residual activity (MAP2K1 (human); compound 10.0 µM): 31%
- residual activity (CSK (human); compound 1.0 µM): 100%
- residual activity (CSK (human); compound 10.0 µM): 95%
- residual activity (GCK (human); compound 1.0 µM): 68%
- residual activity (GCK (human); compound 10.0 µM): 17%
- residual activity (LCK (mouse); compound 1.0 µM): 100%
- residual activity (LCK (mouse); compound 10.0 µM): 98%
- residual activity (SRC (human); compound 1.0 µM): 108%
- residual activity (SRC (human); compound 10.0 µM): 95%
- residual activity (TAOK1 (human); compound 1.0 µM): 65%
- residual activity (TAOK1 (human); compound 10.0 µM): 30%
- residual activity (PKN2 (human); compound 1.0 µM): 98%
- residual activity (PKN2 (human); compound 10.0 µM): 54%
- residual activity (MAPK10 (human); compound 1.0 µM): 85%
- residual activity (MAPK10 (human); compound 10.0 µM): 96%
- residual activity ([1]; compound 1.0 µM): 109%
- residual activity ([1]; compound 10.0 µM): 101%
- residual activity (EPHA4 (human); compound 1.0 µM): 109%
- residual activity (EPHA4 (human); compound 10.0 µM): 106%
- residual activity (NUAK1 (human); compound 1.0 µM): 128%
- residual activity (NUAK1 (human); compound 10.0 µM): 88%
- residual activity (ROCK2 (rat); compound 1.0 µM): 90%
- residual activity (ROCK2 (rat); compound 10.0 µM): 93%
- residual activity (MAP3K11 (human); compound 1.0 µM): 91%
- residual activity (MAP3K11 (human); compound 10.0 µM): 61%
- residual activity (CHEK1 (human); compound 1.0 µM): 118%
- residual activity (CHEK1 (human); compound 10.0 µM): 65%
- residual activity (MAPK8 (human); compound 1.0 µM): 103%
- residual activity (MAPK8 (human); compound 10.0 µM): 101%
- residual activity (MST4 (human); compound 1.0 µM): 118%
- residual activity (MST4 (human); compound 10.0 µM): 71%
- residual activity (MYLK (human); compound 1.0 µM): 94%
- residual activity (MYLK (human); compound 10.0 µM): 42%
- residual activity ([2]; compound 1.0 µM): 99%
- residual activity ([2]; compound 10.0 µM): 73%
- residual activity (MAP3K7 TAB1 (human); compound 1.0 µM): 104%
- residual activity (MAP3K7 TAB1 (human); compound 10.0 µM): 67%
- residual activity (EPHB3 (human); compound 1.0 µM): 122%
- residual activity (EPHB3 (human); compound 10.0 µM): 104%
SMILES: FC(F)(F)c1ccc(-c2ccc(Oc3cncc4sc(-c5nn[nH]n5)cc34)cc2)cc1
